Data published in patent publication US8329739B2, “Phenylimidazole compounds” (Otsuka Pharmaceutical Factory, Inc., priority 2009, dated 2012).

Tests used:
LPL (lipoprotein lipase) [1] = target: T1, LPL (lipoprotein lipase) (Homo sapiens, UniProt P06858); experiment: Confirmation test of LPL activation effect in human skeletal muscle cells; format: cell-based; details: 8 hours exposure, vs control group
T1 construct: endogenous in cells; host or cells: human skeletal muscle myoblasts, differentiated
T1 sequence (P06858 28-475): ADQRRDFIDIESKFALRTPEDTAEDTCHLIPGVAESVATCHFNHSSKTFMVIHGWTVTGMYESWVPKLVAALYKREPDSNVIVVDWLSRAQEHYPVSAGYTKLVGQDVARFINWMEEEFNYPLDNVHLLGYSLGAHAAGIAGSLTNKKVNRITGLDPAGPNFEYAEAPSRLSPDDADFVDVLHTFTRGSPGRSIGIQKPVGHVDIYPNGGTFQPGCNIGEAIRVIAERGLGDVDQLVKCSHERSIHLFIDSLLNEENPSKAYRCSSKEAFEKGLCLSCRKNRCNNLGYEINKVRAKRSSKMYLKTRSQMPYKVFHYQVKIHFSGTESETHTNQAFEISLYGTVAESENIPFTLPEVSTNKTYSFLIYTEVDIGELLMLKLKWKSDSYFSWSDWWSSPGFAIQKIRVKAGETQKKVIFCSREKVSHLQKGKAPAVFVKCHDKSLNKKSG
Protocol: Human skeletal muscle cells (human skeletal muscle myoblasts) or mouse skeletal muscle cells (C2C12 cells) that were seeded onto plates, cultured, and differentiated were exposed to a 0.3% dimethyl sulfoxide-containing culture medium in which the compound of the present invention was dissolved (concentration: 10 μM or 30 μM). The medium was removed 8 hours after exposure, 10 mM of Tris-HCl buffer (150 mM NaCl, 10 μ/mL; containing heparin sodium) was added to the cells, and the cells were incubated at 37° C. in the presence of 5% CO2 for 10 minutes. LPL activity in the supernatant was measured using an LPL activity assay kit (made by Roar Biomedical Inc.). LPL activity was evaluated based on the increase in fluorescence intensity 10 to 70 minutes after mixing the supernatant with the LPL substrate. The mean value of the increase in fluorescence intensity of the cells exposed to a 0.3% dimethyl sulfoxide-containing culture medium […] was used as mean value of the control group. Note that the compounds of Examples 18, 19, 32, 45 and 57 were tested using human skeletal muscle cells, and other compounds were tested using mouse skeletal muscle cells. The rate of increase (%) was calculated from the measured values of LPL activity in the control group and the experimental group, according to the following formula. Rate of increase in LPL activity (%)=[(mean value of the experimental group)−(mean value of the control group)]/(mean value of the control group)×100

[2] = Body weight gain-inhibiting effect in normal SD rats; format: in vivo; details: Rattus norvegicus, po, 100 mg/kg orally every day for 5 days or 2 weeks, vs control group, read-out: Rate of inhibition of body weight gain (%)
Protocol: (§1) 8-week-old SD rats (Japan Charles River: average body weight of about 350 g) were used. 5% aqueous gum arabic suspension, which was prepared such that the dosage of a compound of the present invention was 100 mg/kg body weight, was orally administered to the experimental group in an amount of 5 ml/kg body weight. 5% aqueous gum arabic suspension (not containing any compounds of the present invention) was orally administered to the control group in an amount of 5 ml/kg body weight. The rats were grouped according to their body weight at 8 weeks of age such that each group had 5 rats. The test compounds were orally administered every day at a fixed time for 5 days or 2 weeks, starting when the rats were 9 weeks old. Body weight was regularly measured during the period of oral administration, and the body weight gain-inhibiting effect was observed. 4 hours after the final administration of the test compound, blood was collected from the vein, plasma was separated from the collected blood, and blood biochemical examinations (triglyceride, HDL-cholesterol) were carried out.
The rate of inhibition of body weight gain (%) was calculated from the measured body weights of rats in the control group and the experimental group, according to the following formula. […] Rate of inhibition of body weight gain (%)=[(mean value of the control group)−(mean value of the experimental group)]/(mean value of the control group)×100

[3] = Lipid-improving action in SD rats: blood biochemical examinations (triglyceride, HDL-cholesterol); format: in vivo; details: Rattus norvegicus, po, 100 mg/kg orally every day for 5 days or 2 weeks, plasma 4 hours after final administration, vs control group, read-out: Rate of increase in HDL-cholesterol levels (%)
Protocol: as §1
Blood biochemical examinations of rats in the control group and the experimental group were performed. The rates of change (%) were calculated according to the following formulae from the measured values obtained from the blood biochemical examinations. […] Rate of decrease in triglyceride levels (%)=[(mean value of the control group)−(mean value of the experimental group)]/(mean value of the control group)×100 Rate of increase in HDL-cholesterol levels (%)=[(mean value of the experimental group)−(mean value of the control group)]/(mean value of the control group)×100

[4] = Confirmation test of anti-obesity action in dietary-obese mice; format: in vivo; details: AKR/J mice on high-fat diet (60% kcal fat), 20 mg/kg orally every day for 4 weeks, vs control group
Protocol: AKR/J mice were used. These mice were fed a high-fat diet with 60% kcal fat, and a model of dietary obesity was developed. 5% aqueous gum arabic suspension, which was prepared such that the dosage of a compound of the present invention was 20 mg/kg body weight, was orally administered to the experimental group of obese mice in an amount of 5 ml/kg body weight. […] The mice were grouped according to body weight. The test suspension was administered everyday at a fixed time for 4 weeks. Body weight was measured during the period of oral administration, and the body weight gain-inhibiting effect was confirmed. The rate of body weight reduction (%) was calculated from the measured body weights of mice in the control group and the experimental group, according to the following formula. […] Rate of body weight reduction (%)=[(mean value of the control group)−(mean value of the experimental group)]/(mean value of the control group)×100

LPL (lipoprotein lipase) [5] = target: T2, LPL (lipoprotein lipase) (Mus musculus, UniProt P11152); experiment: Confirmation test of LPL activation effect in mouse skeletal muscle cells (C2C12 cells); format: cell-based; details: 8 hours exposure, vs control group
T2 construct: endogenous in cells; host or cells: C2C12 cells, differentiated
T2 sequence (P11152 28-474): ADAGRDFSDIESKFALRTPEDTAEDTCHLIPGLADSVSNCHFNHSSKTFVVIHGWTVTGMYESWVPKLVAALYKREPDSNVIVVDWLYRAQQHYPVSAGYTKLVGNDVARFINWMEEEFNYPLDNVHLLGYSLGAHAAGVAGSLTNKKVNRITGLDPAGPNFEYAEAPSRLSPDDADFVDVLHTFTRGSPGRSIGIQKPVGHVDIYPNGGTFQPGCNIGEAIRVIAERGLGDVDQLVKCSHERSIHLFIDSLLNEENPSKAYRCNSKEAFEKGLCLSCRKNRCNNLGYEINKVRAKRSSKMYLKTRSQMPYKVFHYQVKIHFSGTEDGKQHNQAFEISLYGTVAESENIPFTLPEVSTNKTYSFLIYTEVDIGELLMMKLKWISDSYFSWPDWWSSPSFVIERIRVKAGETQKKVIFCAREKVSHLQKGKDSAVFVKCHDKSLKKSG
Method in brief: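 Differentiated human skeletal muscle myoblasts or mouse C2C12 cells were exposed to compound at 10 μM or 30 μM in 0.3% DMSO medium for 8 h, then LPL was released with heparin-containing Tris-HCl buffer (10 min, 37° C). Supernatant LPL activity was taken as the fluorescence increase 10–70 min after adding substrate; % increase is calculated versus the DMSO control mean.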

Row | SMILES | Rate of increase in LPL activity (LPL (lipoprotein lipase) [1]; amount of addition 10 μM) [%] | Rate of increase in LPL activity (LPL (lipoprotein lipase) [1]; amount of addition 30 μM) [%] | inhibition in vivo at 100 mg/kg [2] [%] | change in vivo at 100 mg/kg [3] [%] | Rate of body weight reduction (%) [4] [%] | melting point [°C] | Rate of increase in LPL activity (LPL (lipoprotein lipase) [5]; amount of addition 10 μM) [%] | Rate of increase in LPL activity (LPL (lipoprotein lipase) [5]; amount of addition 30 μM) [%]
1 | COc1cc(OCc2ccc(Br)cc2F)ccc1-c1c[nH]c(-c2ccc(F)cc2)n1.Cl [Example 57] | 19 | 40 | 14 | 184 | 17 | > 250 | – | –
2 | COc1cc(OCc2ccc(C#N)cc2)ccc1-c1c[nH]c(-c2ccc(F)cc2)n1.Cl [Example 45] | 23 | 32 | 12 | 27 | 11 | 189 to 191 | – | –
3 | COc1cc(OCc2ccc(Br)cc2F)ccc1-c1c[nH]c(-c2cccs2)n1.Cl [Example 23] | – | – | – | – | 13 | 249 to 253 | 40 | 95
4 | COc1cc(OCc2ccc(Cl)cc2)ccc1-c1c[nH]c(-c2ccc(C(F)(F)F)cc2)n1 [Example 19] | 24 | 28 | 11 | 99 | – | 158 to 162 | – | –
5 | COc1cc(-c2c[nH]c(-c3ccc(C(F)(F)F)cc3)n2)ccc1OCc1ccc(Cl)cc1 [Example 32] | 22 | 57 | 8 | 16 | 11 | 158 to 159 | – | –
6 | COc1cc(OCc2ccc(C#N)cc2)ccc1-c1c[nH]c(-c2cccc(C(F)(F)F)c2)n1.Cl [Example 74] | – | – | 6 | 64 | – | 248 to 250 | 10 | 55
7 | COc1cc(OCc2ccc(Br)cc2F)ccc1-c1c[nH]c(-c2ccc(C(F)(F)F)cc2)n1 [Example 18] | 23 | 23 | 13 | 171 | – | 167 to 170 | – | –
8 | COc1cc(-c2c[nH]c(-c3ccc(F)cc3)n2)ccc1OCc1ccc(Br)cc1F.Cl [Example 52] | – | – | 6 | 36 | – | 228 to 233 | – | –
9 | COc1cc(OCc2ccc(Cl)cc2)ccc1-c1c[nH]c(-c2ccsc2)n1.Cl [Example 70] | – | – | 14 | 34 | – | 238 to 241 | 22 | 87
10 | COc1cc(OCc2ccc(Br)cc2F)ccc1-c1c[nH]c(-c2ccc(C)cc2)n1 [Example 84] | – | – | 8 | 187 | – | 160 to 162 | 53 | 97
11 | COc1cc(-c2c[nH]c(-c3cccs3)n2)ccc1OCc1ccc(Br)cc1F [Example 67] | – | – | 7 | 15 | – | 177 to 179 | 22 | 34
